Source: ChEMBL document CHEMBL4251601 (Eur J Med Chem, 2018)

Legend:
[1] = target: Casein kinase I isoform gamma-1 (Homo sapiens) (UniProt Q9HCP0); assay: Inhibition of recombinant full length human GST-tagged CK1gamma1 expressed in baculovirus expression system at 1 uM by Z'-Lyte assay relative to control
[2] = target: Mitogen-activated protein kinase kinase kinase 14 (Homo sapiens, UniProt Q99558); assay: Inhibition of recombinant human GST-tagged NIK expressed in baculovirus expression system at 0.1 uM by Z'-Lyte assay relative to control
[3] = target: Tyrosine-protein kinase JAK3 (Homo sapiens, UniProt P52333); assay: Inhibition of recombinant human GST-tagged JAK3 cytoplasmic domain (781 to 1124 residues) expressed in baculovirus expression system using ULight-JAK-1 peptide as substrate preincubated for 15 mins followed by ATP addition measured after 90 mins
[4] = AUC (0 to 48 hrs) in CD-1 mouse brain at 10 mg/kg, po administered as single dose by LC-MS/MS analysis; format: ADME, organism-based; set-up: dose 10 mg/kg, time < 48 hr, route oral; settings: in vivo
[5] = target: Serine/threonine-protein kinase PAK 2 (Homo sapiens) (UniProt Q13177); assay: Inhibition of recombinant human full length GST-tagged PAK2 expressed in baculovirus expression system at 0.1 uM by Z'-Lyte assay relative to control
[6] = target: Serine/threonine-protein kinase PAK 4 (Homo sapiens) (UniProt O96013); assay: Inhibition of recombinant human GST-tagged PAK4 expressed in baculovirus expression system at 0.1 uM by Z'-Lyte assay relative to control
Serine/threonine-protein kinase PAK 4 (Homo sapiens), sequence (O96013 whole entry, looked up): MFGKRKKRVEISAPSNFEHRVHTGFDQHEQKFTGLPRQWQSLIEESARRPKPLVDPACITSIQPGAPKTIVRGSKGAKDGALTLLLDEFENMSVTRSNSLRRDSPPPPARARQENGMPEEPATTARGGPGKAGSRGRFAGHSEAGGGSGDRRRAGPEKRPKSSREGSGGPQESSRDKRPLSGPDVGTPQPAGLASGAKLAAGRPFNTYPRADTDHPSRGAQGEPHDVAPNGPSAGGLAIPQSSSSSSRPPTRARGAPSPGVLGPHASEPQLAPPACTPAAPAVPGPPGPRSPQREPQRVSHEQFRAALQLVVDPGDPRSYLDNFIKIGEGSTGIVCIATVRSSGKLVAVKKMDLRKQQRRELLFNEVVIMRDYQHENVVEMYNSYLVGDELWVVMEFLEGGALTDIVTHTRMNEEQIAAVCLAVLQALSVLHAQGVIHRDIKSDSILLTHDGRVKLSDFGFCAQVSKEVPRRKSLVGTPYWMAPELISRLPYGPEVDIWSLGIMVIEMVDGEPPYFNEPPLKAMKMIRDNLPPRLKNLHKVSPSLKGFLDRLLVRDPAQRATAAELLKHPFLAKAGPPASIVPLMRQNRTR

[7] = AUC (0 to 24 hrs) in Sprague-Dawley rat at 5 mg/kg, po administered as single dose by LC-MS/MS analysis; format: ADME, organism-based; set-up: time < 24 hr, dose 5 mg/kg, route oral; settings: in vivo
[8] = target: Vascular endothelial growth factor receptor 2 (Homo sapiens) (UniProt P35968); assay: Inhibition of recombinant human His-tagged KDR cytoplasmic domain expressed in baculovirus expression system at 1 uM by Z'-Lyte assay relative to control
[9] = test system: Mitogen-activated protein kinase kinase kinase 7; assay: Inhibition of TAK1 (unknown origin) at 1 uM by TR-FRET assay relative to control; settings: Homo sapiens
[10] = target: STE20-like serine/threonine-protein kinase (Homo sapiens) (UniProt Q9H2G2); assay: Inhibition of recombinant human full length GST-tagged SLK expressed in baculovirus expression system at 0.1 uM by LanthaScreen assay relative to control
STE20-like serine/threonine-protein kinase (Homo sapiens), sequence (Q9H2G2 whole entry, looked up, the tested form may be a part): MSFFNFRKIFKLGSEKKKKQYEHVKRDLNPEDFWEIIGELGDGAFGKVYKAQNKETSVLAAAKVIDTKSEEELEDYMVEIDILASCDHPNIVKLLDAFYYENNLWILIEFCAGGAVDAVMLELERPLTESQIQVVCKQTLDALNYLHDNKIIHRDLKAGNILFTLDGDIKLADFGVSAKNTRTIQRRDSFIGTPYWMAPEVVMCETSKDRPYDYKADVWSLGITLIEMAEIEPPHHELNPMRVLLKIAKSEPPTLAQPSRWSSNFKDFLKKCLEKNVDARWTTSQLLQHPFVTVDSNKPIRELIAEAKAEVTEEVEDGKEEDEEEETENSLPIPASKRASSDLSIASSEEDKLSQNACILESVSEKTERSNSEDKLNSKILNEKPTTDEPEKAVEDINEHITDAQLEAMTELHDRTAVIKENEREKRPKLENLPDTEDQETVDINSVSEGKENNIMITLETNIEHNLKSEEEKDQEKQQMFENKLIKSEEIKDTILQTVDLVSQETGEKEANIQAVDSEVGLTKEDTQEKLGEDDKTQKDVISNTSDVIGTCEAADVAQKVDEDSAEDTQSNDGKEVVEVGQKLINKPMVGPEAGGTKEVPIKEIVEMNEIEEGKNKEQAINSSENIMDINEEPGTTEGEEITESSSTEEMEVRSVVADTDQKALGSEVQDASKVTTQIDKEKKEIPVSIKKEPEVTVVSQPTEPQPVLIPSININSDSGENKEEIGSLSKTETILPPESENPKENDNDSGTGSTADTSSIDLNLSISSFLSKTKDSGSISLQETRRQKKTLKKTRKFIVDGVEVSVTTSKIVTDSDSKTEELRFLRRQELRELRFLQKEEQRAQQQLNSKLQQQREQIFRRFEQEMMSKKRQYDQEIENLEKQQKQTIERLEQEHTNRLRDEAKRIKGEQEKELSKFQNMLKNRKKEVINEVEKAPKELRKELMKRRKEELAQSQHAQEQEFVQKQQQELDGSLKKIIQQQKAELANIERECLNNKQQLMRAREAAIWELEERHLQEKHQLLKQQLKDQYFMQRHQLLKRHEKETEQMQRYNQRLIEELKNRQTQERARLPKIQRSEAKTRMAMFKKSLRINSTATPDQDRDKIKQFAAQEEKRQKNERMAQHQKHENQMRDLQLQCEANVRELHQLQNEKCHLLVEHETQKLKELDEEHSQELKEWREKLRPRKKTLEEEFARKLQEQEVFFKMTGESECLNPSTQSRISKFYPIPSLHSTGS

[11] = target: Serine/threonine-protein kinase PAK 4 (Homo sapiens) (UniProt O96013); assay: Inhibition of recombinant human GST-tagged PAK4 expressed in baculovirus expression system at 1 uM by Z'-Lyte assay relative to control
[12] = target: Tyrosine-protein kinase SYK (Homo sapiens) (UniProt P43405); assay: Inhibition of recombinant human full length GST-tagged SYK expressed in baculovirus expression system at 0.1 uM by Z'-Lyte assay relative to control
[13] = target: Serine/threonine-protein kinase 26 (Homo sapiens) (UniProt Q9P289); assay: Inhibition of recombinant human full length GST-tagged MST4 expressed in baculovirus expression system at 1 uM by Z'-Lyte assay relative to control
Serine/threonine-protein kinase 26 (Homo sapiens), sequence (Q9P289 2-416 limits assumed): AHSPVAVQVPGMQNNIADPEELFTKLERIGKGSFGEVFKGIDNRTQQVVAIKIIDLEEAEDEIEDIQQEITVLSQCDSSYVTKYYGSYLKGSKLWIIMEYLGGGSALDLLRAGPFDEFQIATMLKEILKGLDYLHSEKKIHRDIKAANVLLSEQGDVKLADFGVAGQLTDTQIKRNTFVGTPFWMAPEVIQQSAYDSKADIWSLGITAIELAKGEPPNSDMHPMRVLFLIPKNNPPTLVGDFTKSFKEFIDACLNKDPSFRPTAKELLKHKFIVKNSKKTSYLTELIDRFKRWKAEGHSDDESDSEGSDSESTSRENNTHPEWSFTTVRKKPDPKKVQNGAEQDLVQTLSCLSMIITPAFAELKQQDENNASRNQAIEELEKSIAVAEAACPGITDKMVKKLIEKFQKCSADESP

[14] = target: Misshapen-like kinase 1 (Homo sapiens) (UniProt Q8N4C8); assay: Inhibition of recombinant human GST-tagged MINK (1 to 320 residues) expressed in baculovirus expression system at 1 uM by Z'-Lyte assay relative to control
Misshapen-like kinase 1 (Homo sapiens), sequence (Q8N4C8 whole entry, looked up, the tested form may be a part): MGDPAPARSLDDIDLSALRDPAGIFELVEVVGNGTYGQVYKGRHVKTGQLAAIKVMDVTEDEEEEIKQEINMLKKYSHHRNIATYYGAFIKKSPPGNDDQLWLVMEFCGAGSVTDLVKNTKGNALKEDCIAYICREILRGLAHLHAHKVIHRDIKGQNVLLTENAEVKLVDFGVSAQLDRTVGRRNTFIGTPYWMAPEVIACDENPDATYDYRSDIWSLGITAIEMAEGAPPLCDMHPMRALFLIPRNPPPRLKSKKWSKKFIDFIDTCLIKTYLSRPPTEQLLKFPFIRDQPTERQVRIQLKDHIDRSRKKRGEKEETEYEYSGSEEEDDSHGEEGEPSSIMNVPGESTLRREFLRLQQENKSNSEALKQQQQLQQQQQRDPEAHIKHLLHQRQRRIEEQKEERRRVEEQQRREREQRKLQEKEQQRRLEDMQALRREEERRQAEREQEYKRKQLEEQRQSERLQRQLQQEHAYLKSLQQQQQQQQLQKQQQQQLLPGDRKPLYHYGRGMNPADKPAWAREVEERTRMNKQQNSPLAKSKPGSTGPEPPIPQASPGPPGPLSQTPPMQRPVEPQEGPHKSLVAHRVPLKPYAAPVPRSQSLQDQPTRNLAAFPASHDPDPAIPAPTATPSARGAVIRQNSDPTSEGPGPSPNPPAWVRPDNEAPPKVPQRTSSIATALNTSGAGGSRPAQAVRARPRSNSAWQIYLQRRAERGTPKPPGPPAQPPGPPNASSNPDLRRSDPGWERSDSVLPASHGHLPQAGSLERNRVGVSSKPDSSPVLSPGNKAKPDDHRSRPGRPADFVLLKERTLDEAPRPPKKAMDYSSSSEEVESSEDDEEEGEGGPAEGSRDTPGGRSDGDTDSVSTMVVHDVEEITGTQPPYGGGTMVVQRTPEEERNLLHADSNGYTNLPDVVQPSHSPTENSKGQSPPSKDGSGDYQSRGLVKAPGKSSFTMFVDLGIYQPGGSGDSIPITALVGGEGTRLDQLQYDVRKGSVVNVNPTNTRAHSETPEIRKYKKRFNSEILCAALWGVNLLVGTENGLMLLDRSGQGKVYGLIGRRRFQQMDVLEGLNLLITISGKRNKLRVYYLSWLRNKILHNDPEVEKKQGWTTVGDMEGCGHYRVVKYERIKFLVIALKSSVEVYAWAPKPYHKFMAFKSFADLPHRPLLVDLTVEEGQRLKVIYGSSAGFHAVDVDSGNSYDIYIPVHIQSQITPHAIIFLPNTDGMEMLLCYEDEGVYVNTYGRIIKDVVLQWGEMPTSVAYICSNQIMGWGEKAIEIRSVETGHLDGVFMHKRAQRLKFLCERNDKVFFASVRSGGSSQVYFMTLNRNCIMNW

[15] = target: Aurora kinase A (Homo sapiens) (UniProt O14965); assay: Inhibition of recombinant full length human His-tagged AURKA expressed in baculovirus expression system at 1 uM by Z'-Lyte assay relative to control
Aurora kinase A (Homo sapiens), sequence (O14965 whole entry): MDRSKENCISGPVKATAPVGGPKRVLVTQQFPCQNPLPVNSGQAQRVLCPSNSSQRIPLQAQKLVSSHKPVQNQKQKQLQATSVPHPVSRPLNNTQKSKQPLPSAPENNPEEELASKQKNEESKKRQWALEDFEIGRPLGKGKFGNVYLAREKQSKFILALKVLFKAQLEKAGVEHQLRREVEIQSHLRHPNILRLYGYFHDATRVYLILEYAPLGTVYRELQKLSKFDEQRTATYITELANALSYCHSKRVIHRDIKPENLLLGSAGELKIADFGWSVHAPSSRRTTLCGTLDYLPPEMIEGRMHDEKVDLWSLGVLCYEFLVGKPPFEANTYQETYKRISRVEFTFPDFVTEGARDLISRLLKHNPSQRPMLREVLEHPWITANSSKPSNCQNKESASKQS

[16] = target: CDK6/cyclin D3 (Homo sapiens) (UniProt P30281+Q00534); assay: Inhibition of recombinant full length human GST-tagged […] expressed in baculovirus expression system at 0.1 uM by TR-FRET assay relative to control
[17] = target: RAC-gamma serine/threonine-protein kinase (Homo sapiens) (UniProt Q9Y243); assay: Inhibition of recombinant full length human His-tagged AKT3 expressed in baculovirus expression system at 0.1 uM by TR-FRET assay relative to control
[18] = target: Protein kinase C beta type (Homo sapiens) (UniProt P05771); assay: Inhibition of PKCbeta2 (unknown origin) at 1 uM by Z'-Lyte assay relative to control
[19] = Unbound AUC (0 to 24 hrs) in CD-1 mouse plasma at 10 mg/kg, po administered as single dose by LC-MS/MS analysis; format: ADME, organism-based; settings: in vivo
[20] = Fraction unbound in CD-1 mouse plasma at 2 uM incubated for 4 hrs by LC/MS/MS analysis based equillibriun dialysis method; format: ADME, cell-free
[21] = AUC (0 to 24 hrs) in Sprague-Dawley rat at 2 mg/kg, iv administered as single dose by LC-MS/MS analysis; format: ADME, organism-based; set-up: dose 2 mg/kg, time < 24 hr, route intravenous; settings: in vivo
[22] = target: G protein-coupled receptor kinase 5 (Homo sapiens) (UniProt P34947); assay: Inhibition of recombinant human full length GST-tagged GRK5 expressed in baculovirus expression system at 1 uM by Z'-Lyte assay relative to control
G protein-coupled receptor kinase 5 (Homo sapiens), sequence (P34947 whole entry, looked up, the tested form may be a part): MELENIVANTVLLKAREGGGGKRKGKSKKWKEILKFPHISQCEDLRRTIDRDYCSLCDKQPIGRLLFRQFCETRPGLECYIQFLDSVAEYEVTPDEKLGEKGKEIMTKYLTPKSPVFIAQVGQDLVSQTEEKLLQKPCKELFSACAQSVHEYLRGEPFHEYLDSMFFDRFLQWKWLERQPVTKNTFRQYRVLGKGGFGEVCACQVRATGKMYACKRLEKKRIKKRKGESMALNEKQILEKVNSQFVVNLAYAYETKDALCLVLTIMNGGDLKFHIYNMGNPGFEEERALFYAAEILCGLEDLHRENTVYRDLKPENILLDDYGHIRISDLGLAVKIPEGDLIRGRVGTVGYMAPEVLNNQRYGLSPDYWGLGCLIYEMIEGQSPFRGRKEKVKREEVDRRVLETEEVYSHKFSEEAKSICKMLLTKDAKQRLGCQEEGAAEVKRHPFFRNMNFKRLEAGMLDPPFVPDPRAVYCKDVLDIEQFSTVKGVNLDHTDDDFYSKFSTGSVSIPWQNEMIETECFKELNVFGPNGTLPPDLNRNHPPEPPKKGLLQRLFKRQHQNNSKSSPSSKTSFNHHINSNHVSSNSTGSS

[23] = target: Fibroblast growth factor receptor 1 (Homo sapiens) (UniProt P11362); assay: Inhibition of recombinant human His-tagged FGFR1 cytoplasmic domain expressed in baculovirus expression system at 0.1 uM by Z'-Lyte assay relative to control
[24] = target: G protein-coupled receptor kinase 6 (Homo sapiens) (UniProt P43250); assay: Inhibition of recombinant human full length GST-tagged GRK6 expressed in baculovirus expression system at 0.1 uM by Z'-Lyte assay relative to control
[25] = target: G protein-coupled receptor kinase 3 (Homo sapiens) (UniProt P35626); assay: Inhibition of recombinant human full length GST-tagged GRK3 expressed in baculovirus expression system at 0.1 uM by Z'-Lyte assay relative to control
[26] = test system: Epidermal growth factor receptor (Homo sapiens), P00533 [UNDEFINED MUTATION]; assay: Inhibition of recombinant human EGFR d746 to 750 deletion/T790M mutant at 1 uM by TR-FRET assay relative to control
[27] = target: Casein kinase I isoform gamma-1 (Homo sapiens) (UniProt Q9HCP0); assay: Inhibition of recombinant full length human GST-tagged CK1gamma1 expressed in baculovirus expression system at 0.1 uM by Z'-Lyte assay relative to control
[28] = target: STE20-like serine/threonine-protein kinase (Homo sapiens) (UniProt Q9H2G2); assay: Inhibition of recombinant human full length GST-tagged SLK expressed in baculovirus expression system at 1 uM by LanthaScreen assay relative to control
[29] = target: Hepatocyte growth factor receptor (Homo sapiens) (UniProt P08581); assay: Inhibition of recombinant human His-tagged c-Met cytoplasmic domain expressed in baculovirus expression system at 1 uM by Z'-Lyte assay relative to control
[30] = target: Serine/threonine-protein kinase 26 (Homo sapiens) (UniProt Q9P289); assay: Inhibition of recombinant human full length GST-tagged MST4 expressed in baculovirus expression system at 0.1 uM by Z'-Lyte assay relative to control
[31] = Clearance in Sprague-Dawley rat at 2 mg/kg, iv administered as single dose by LC-MS/MS analysis; format: ADME, organism-based; settings: in vivo
[32] = target: CDK8/Cyclin C (Homo sapiens) (UniProt P49336+P24863); assay: Inhibition of recombinant full length human His-tagged CDK8/Cyclin-C expressed in baculovirus expression system at 1 uM by LanthaScreen assay relative to control

Casein kinase I isoform gamma-1 (Homo sapiens), sequence (Q9HCP0 whole entry, looked up, canonical isoform): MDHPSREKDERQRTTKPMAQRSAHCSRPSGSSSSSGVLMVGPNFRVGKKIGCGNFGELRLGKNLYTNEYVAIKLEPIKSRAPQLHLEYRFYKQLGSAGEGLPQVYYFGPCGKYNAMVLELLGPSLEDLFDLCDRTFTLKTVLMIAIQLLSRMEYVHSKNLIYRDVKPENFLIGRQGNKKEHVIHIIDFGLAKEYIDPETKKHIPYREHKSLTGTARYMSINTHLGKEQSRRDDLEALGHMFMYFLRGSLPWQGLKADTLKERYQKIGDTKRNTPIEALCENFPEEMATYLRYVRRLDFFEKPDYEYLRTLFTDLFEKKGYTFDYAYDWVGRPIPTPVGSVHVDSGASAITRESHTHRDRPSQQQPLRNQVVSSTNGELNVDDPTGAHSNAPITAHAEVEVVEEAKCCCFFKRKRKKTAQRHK

`CC1=Nc2c(F)cc(-c3nc(Nc4ccc(C5CCN(C)CC5)cn4)ncc3F)cc2C12CCCC2` [CROZBACICLIB] showed an inhibition [1] of 5%, an inhibition [2] of 56% and an IC50 [3] of 154 nM. The AUC [4] was 37178 ng·h/g, the inhibition [5] was 2% and the inhibition [6] was 4%. The AUC(0-t) at 24 h [7] was 1530 ng·h/mL, the inhibition [8] was 14% and the inhibition [9] was 17%. The inhibition [10] was 11%, the inhibition [11] was 12% and the inhibition [12] was 5%. The inhibition [13] was -1%, the inhibition [14] was 90% and the inhibition [15] was 6%. For the same compound, the inhibition [16] was 100%, the inhibition [17] was 10% and the inhibition [18] was 52%. It also gave a fAUC [19] of 63.45 ng·h/mL, a Fu [20] of 0.7% and an AUC(0-t) at 24 h [21] of 886 ng·h/mL. It also gave an inhibition [22] of 1%, an inhibition [23] of -8% and an inhibition [24] of -4%. It also gave an inhibition [25] of -7%, an inhibition [26] of 87% and an inhibition [27] of 3%. It also gave an inhibition [28] of 42%, an inhibition [29] of 87% and an inhibition [30] of -5%. The clearance [31] was 34.9 mL/min/kg and the inhibition [32] was 85%.
